Test results: publication PMC7655571, “Acetylcholinesterase inhibition in electric eel and human donor blood: an in vitro approach to investigate interspecies differences and human variability in toxicodynamics” (Archives of Toxicology, 2020)
pIC50: −log10 of the molar value. Where “and” joins values, the source holds several entries; their conditions need not be identical. Equal values may be shown once. Entries after “also recorded” stand apart in the source; their conditions may differ. Read-outs that look alike come from different tables or passages of the source.

Key:
[1] = target: T1, Electrophorus electricus AChE (Electrophorus electricus, UniProt O42275); test: AChE inhibition, electric eel enzyme (Ellman method); format: biochemical; conditions: for AChE inhibition (in words), electric eel: concentration–response curves
T1 construct: purchased Sigma-Aldrich C2888
Procedure: (§1) A 1.3 mM DTNB buffer and a 6 mM acetylthiocholine buffer were prepared in the 50 mM sodium phosphate buffer, a 3 mM ethopropazine buffer was prepared in sterile water and all were stored in aliquots at − 20 °C. A 600 µM ethopropazine buffer was prepared just before use in sodium phosphate buffer.
(§2) Stock solutions were diluted in methanol to create a dosing series and also stored at − 20 °C. These series were 100× diluted in sodium phosphate buffer to get 1% methanol solutions, resulting in a final concentration of 0.1% methanol in the wells.
AChE from Electrophorus electricus (electric eel) and freshly drawn (maximum one-day-old), venous EDTA whole blood samples from healthy human donors were used. […] Following incubation for 30 min at room temperature, electric eel AChE was used directly in the enzyme activity assay (see “Enzyme activity assay”). For human blood AChE, 50 µL of the blood was added to a new 48-wells plate and 950 µL Triton buffer was added to these wells (20× dilution).
Briefly, 20 µL of electric eel AChE or 20 µL of Triton-diluted blood (either exposed or unexposed) and 20 µL ethopropazine were added to 460 µL of DTNB buffer in a 48-wells plate. […] Blank wells contained only DTNB buffer and unexposed enzyme/blood to correct for any background absorbance. To these wells, 100 µL sodium phosphate buffer was added instead of acetylthiocholine after incubation. The final concentration of electric eel AChE was 4 mU/well.
All in vitro data were analysed in GraphPad Prism (version 8.4) and are expressed as mean ± standard deviation (SD). For data analysis, vehicle control (0.1% methanol) was set at 100% for both human and electric eel AChE. For human blood, the technical replicates were averaged to perform statistical tests. […] The electric eel AChE data consisted of 3 technical replicates per experiment and 3–4 independent biological replicates.

human blood AChE = target: T2, human blood AChE (Homo sapiens, UniProt P22303); test: AChE inhibition in human donor whole blood (Ellman method); format: biochemical; conditions: for AChE inhibition (in words), human blood: concentration–response curves; for Coefficient of variation (CV) C1 Human / Coefficient of variation (CV) C2 Human / Coefficient of variation (CV) C3 Human / Coefficient of variation (CV) C4 Human / Coefficient of variation (CV) C5 Human / Coefficient of variation (CV) C6 Human: human variability in AChE inhibition; for Coefficient of variation (CV) C1 Human: concentration level C1 (Table S2); for Coefficient of variation (CV) C2 Human: concentration level C2 (Table S2); for Coefficient of variation (CV) C3 Human: concentration level C3 (Table S2); for Coefficient of variation (CV) C4 Human: concentration level C4 (Table S2); for Human uncertainty factor (UF) UF97.5: interindividual differences, concentration closest to the IC20, 95% CI in brackets; for Coefficient of variation (CV) C5 Human: concentration level C5 (Table S2); for Coefficient of variation (CV) C6 Human: highest concentration C6 (Table S2)
T2 construct: 90 µL undiluted blood in a 48-wells plate; from tissue; host or cells: venous EDTA whole blood from healthy human donors, lysed and diluted in Triton X-100 buffer
Procedure: as §1, §2
AChE from Electrophorus electricus (electric eel) and freshly drawn (maximum one-day-old), venous EDTA whole blood samples from healthy human donors were used. […] For human blood AChE, 50 µL of the blood was added to a new 48-wells plate and 950 µL Triton buffer was added to these wells (20× dilution).
Briefly, 20 µL of electric eel AChE or 20 µL of Triton-diluted blood (either exposed or unexposed) and 20 µL ethopropazine were added to 460 µL of DTNB buffer in a 48-wells plate. […] Blank wells contained only DTNB buffer and unexposed enzyme/blood to correct for any background absorbance. To these wells, 100 µL sodium phosphate buffer was added instead of acetylthiocholine after incubation.
Unexposed, diluted blood (100 µL) was added to a 96-wells plate and 100 µL transformation agent (20 mg potassium ferricyanide, 5 mg potassium cyanide, 100 mg sodium bicarbonate and 50 µL Triton X-100 in 100 mL water) was added. […] Blank wells contained transformation reagent and buffer to correct for any background absorbance.
All in vitro data were analysed in GraphPad Prism (version 8.4) and are expressed as mean ± standard deviation (SD). For data analysis, vehicle control (0.1% methanol) was set at 100% for both human and electric eel AChE. For human blood, the technical replicates were averaged to perform statistical tests. Unpaired t tests were used to test for differences between men and women and a one-way ANOVA followed by a post-hoc Tukey test was used to compare data between different age groups (group 1: ≥ 60 years; group 2: 31–60 years; group 3: ≤ 30 years).

electric eel AChE = conditions: cited from earlier work
[2] = measured or estimated in plasma following human exposure, cited from earlier work
[3] = target: human AChE (recombinant enzyme); conditions: source: recombinant enzyme; ref Li et al. ([2019]); cited from earlier work
[4] = 30 min exposure, room temperature
[5] = whole blood, average of 20 donors, read-out: IC20 Human
[6] = 30 min exposure, room temperature, 3–4 independent experiments, read-out: IC50 Electric eel
[7] = IC50 Human, whole blood, average of 20 donors

T1 sequence (O42275 24-633): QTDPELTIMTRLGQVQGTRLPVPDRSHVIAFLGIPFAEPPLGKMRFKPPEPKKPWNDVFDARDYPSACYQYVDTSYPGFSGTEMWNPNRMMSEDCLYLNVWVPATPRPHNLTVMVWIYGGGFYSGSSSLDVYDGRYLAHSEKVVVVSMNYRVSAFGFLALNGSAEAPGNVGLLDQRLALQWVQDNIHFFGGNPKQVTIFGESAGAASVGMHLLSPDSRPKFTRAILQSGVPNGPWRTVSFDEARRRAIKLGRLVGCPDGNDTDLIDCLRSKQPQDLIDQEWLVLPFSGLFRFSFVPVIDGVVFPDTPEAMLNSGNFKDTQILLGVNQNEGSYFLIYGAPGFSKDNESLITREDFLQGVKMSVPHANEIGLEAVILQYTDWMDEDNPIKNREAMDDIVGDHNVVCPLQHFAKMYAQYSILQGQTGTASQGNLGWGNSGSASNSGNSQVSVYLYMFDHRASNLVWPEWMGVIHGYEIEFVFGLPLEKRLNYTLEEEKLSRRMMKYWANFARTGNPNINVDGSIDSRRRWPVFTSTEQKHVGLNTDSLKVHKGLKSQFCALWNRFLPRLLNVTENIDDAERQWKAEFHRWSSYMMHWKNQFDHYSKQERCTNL
T2 sequence (P22303 32-617 isoform P22303-2 limits assumed): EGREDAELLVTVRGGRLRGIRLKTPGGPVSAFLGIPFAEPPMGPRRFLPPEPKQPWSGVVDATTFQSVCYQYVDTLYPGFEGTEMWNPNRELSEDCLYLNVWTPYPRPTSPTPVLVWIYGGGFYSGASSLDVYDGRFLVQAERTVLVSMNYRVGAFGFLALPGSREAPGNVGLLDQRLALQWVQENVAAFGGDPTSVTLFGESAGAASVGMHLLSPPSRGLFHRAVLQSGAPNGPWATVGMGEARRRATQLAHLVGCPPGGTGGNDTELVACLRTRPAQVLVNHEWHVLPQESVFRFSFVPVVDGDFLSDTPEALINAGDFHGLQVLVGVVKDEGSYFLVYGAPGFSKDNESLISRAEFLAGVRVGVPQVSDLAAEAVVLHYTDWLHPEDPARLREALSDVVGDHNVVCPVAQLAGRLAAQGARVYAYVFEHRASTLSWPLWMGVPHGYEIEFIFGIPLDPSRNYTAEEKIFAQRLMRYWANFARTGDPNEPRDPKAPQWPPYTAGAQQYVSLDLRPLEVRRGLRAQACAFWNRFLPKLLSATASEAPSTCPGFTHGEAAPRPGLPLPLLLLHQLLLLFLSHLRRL

Compound: CCOP(=O)(OCC)Oc1nc(Cl)c(Cl)cc1Cl [CPO, Chlorpyrifos-oxon]
- IC20 [1, 4]: 0.01 µM
- AChE inhibition (in words), electric eel [1]: show inhibition of AChE
- AChE inhibition (in words), human blood (human blood AChE): show inhibition of AChE
- IC20 (human blood AChE; donor 3, read-out: IC20 Value): 0.1 µM
- IC20 (human blood AChE; donor 4, read-out: IC20 Value): 0.1 µM
- IC20 (human blood AChE; donor 5, read-out: IC20 Value): 0.1 µM
- IC20 (human blood AChE; donor 8, read-out: IC20 Value): 0.1 µM
- IC20 (human blood AChE; donor 11, read-out: IC20 Value): 0.1 µM
- IC20 (human blood AChE; donor 15, read-out: IC20 Value): 0.1 µM
- IC20 (human blood AChE; donor 17, read-out: IC20 Value): 0.1 µM
- concentration at which AChE activity is inhibited completely (human blood AChE; human donor blood): ≥ 2.9 µM
- Coefficient of variation (CV) C1 Human (human blood AChE): 5.5%
- Coefficient of variation (CV) C2 Human (human blood AChE): 6.0%
- Coefficient of variation (CV) C3 Human (human blood AChE): 12%
- Coefficient of variation (CV) C4 Human (human blood AChE): 99%
- Human uncertainty factor (UF) UF97.5 (human blood AChE): 2.2 and 2.2 [1.9–2.7]
- IC20 (human blood AChE; [5]): 0.17 µM
- pIC50 (electric eel AChE; ref Jett et al. ([1999])): 8.00
- pIC50 (electric eel AChE; ref Meijer et al. ([2014])): 8.00
- pIC50 (electric eel AChE; ref Čolović et al. ([2011])): 7.52
- In vivo concentration ([2]; ref Eyer et al. ([2009])): ≤ 0.06 µM
- In vivo concentration ([2]; ref Heilmair et al. ([2008])): ≤ 0.02 µM

Compound: CCOP(=O)(OCC)Oc1cc(C)nc(C(C)C)n1 [DZO, diazinon-oxon]
- IC20 [1, 4]: 0.41 µM
- pIC50 [1, 6]: 5.99
- AChE inhibition (in words), electric eel [1]: show inhibition of AChE
- AChE inhibition (in words), human blood (human blood AChE): show inhibition of AChE
- IC20 (human blood AChE; donor 1, read-out: IC20 Value): 0.5 µM
- pIC50 (human blood AChE; donor 1, read-out: IC50 Value): 5.82
- IC20 (human blood AChE; donor 2, read-out: IC20 Value): 0.7 µM
- pIC50 (human blood AChE; donor 2, read-out: IC50 Value): 5.77
- IC20 (human blood AChE; donor 3, read-out: IC20 Value): 1 µM
- pIC50 (human blood AChE; donor 3, read-out: IC50 Value): 5.64
- IC20 (human blood AChE; donor 4, read-out: IC20 Value): 0.4 µM
- pIC50 (human blood AChE; donor 4, read-out: IC50 Value): 5.82
- IC20 (human blood AChE; donor 5, read-out: IC20 Value): 0.7 µM
- pIC50 (human blood AChE; donor 5, read-out: IC50 Value): 5.80
- IC20 (human blood AChE; donor 6, read-out: IC20 Value): 1.4 µM
- pIC50 (human blood AChE; donor 6, read-out: IC50 Value): 5.59
- IC20 (human blood AChE; donor 7, read-out: IC20 Value): 1.2 µM
- pIC50 (human blood AChE; donor 7, read-out: IC50 Value): 5.62
- IC20 (human blood AChE; donor 8, read-out: IC20 Value): 1.2 µM
- pIC50 (human blood AChE; donor 8, read-out: IC50 Value): 5.66
- IC20 (human blood AChE; donor 9, read-out: IC20 Value): 1.1 µM
- pIC50 (human blood AChE; donor 9, read-out: IC50 Value): 5.68
- IC20 (human blood AChE; donor 10, read-out: IC20 Value): 1.9 µM
- pIC50 (human blood AChE; donor 10, read-out: IC50 Value): 5.35
- IC20 (human blood AChE; donor 11, read-out: IC20 Value): 1.7 µM
- pIC50 (human blood AChE; donor 11, read-out: IC50 Value): 5.54
- IC20 (human blood AChE; donor 12, read-out: IC20 Value): 1.9 µM
- pIC50 (human blood AChE; donor 12, read-out: IC50 Value): 5.43
- IC20 (human blood AChE; donor 13, read-out: IC20 Value): 1.1 µM
- IC20 (human blood AChE; donor 14, read-out: IC20 Value): 1.3 µM
- pIC50 (human blood AChE; donor 14, read-out: IC50 Value): 5.55
- IC20 (human blood AChE; donor 15, read-out: IC20 Value): 0.9 µM
- pIC50 (human blood AChE; donor 15, read-out: IC50 Value): 5.72
- IC20 (human blood AChE; donor 16, read-out: IC20 Value): 1.3 µM
- pIC50 (human blood AChE; donor 16, read-out: IC50 Value): 5.52
- IC20 (human blood AChE; donor 17, read-out: IC20 Value): 0.9 µM
- pIC50 (human blood AChE; donor 17, read-out: IC50 Value): 5.66
- IC20 (human blood AChE; donor 18, read-out: IC20 Value): 1.4 µM
- pIC50 (human blood AChE; donor 18, read-out: IC50 Value): 5.54
- IC20 (human blood AChE; donor 19, read-out: IC20 Value): 1.9 µM
- pIC50 (human blood AChE; donor 19, read-out: IC50 Value): 5.47
- IC20 (human blood AChE; donor 20, read-out: IC20 Value): 1.3 µM
- pIC50 (human blood AChE; donor 20, read-out: IC50 Value): 5.57
- Coefficient of variation (CV) C1 Human (human blood AChE): 5.9%
- Coefficient of variation (CV) C2 Human (human blood AChE): 5.7%
- Coefficient of variation (CV) C3 Human (human blood AChE): 6.8%
- Coefficient of variation (CV) C4 Human (human blood AChE): 6.1%
- Coefficient of variation (CV) C5 Human (human blood AChE): 8.5%
- Coefficient of variation (CV) C6 Human (human blood AChE): 25%
- Human uncertainty factor (UF) UF97.5 (human blood AChE): 1.4 [1.2–1.6]
- IC20 (human blood AChE; [5]): 1.2 µM
- pIC50 (human blood AChE; whole blood, average of 20 donors, read-out: IC50 Human): 5.60
- pIC50 (electric eel AChE; ref Čolović et al. ([2011])): 7.30
- pIC50 [3]: 5.89

Compound: Cc1nc(N(C)C)nc(OC(=O)N(C)C)c1C [PI, pirimicarb]
- IC20 [1, 4]: 9.9 µM
- pIC50 [1, 6]: 4.21
- AChE inhibition (in words), electric eel [1]: show inhibition of AChE
- pIC50 (human blood AChE; [7]): 4.70
- pIC50 (human blood AChE; IC50 Value, donor 1): 4.72
- pIC50 (human blood AChE; IC50 Value, donor 2): 4.72
- pIC50 (human blood AChE; IC50 Value, donor 3): 4.77
- pIC50 (human blood AChE; IC50 Value, donor 4): 4.66
- pIC50 (human blood AChE; IC50 Value, donor 5): 4.77
- pIC50 (human blood AChE; IC50 Value, donor 6): 4.62
- pIC50 (human blood AChE; IC50 Value, donor 7): 4.64
- pIC50 (human blood AChE; IC50 Value, donor 8): 4.59
- pIC50 (human blood AChE; IC50 Value, donor 9): 4.82
- pIC50 (human blood AChE; IC50 Value, donor 11): 4.54
- pIC50 (human blood AChE; IC50 Value, donor 12): 4.74
- pIC50 (human blood AChE; IC50 Value, donor 13): 4.72
- pIC50 (human blood AChE; IC50 Value, donor 14): 4.82
- pIC50 (human blood AChE; IC50 Value, donor 15): 4.80
- pIC50 (human blood AChE; IC50 Value, donor 16): 4.85
- pIC50 (human blood AChE; IC50 Value, donor 17): 4.80
- pIC50 (human blood AChE; IC50 Value, donor 18): 4.66
- pIC50 (human blood AChE; IC50 Value, donor 19): 4.55
- pIC50 (human blood AChE; IC50 Value, donor 20): 4.72
- AChE inhibition (in words), human blood (human blood AChE): show inhibition of AChE
- Coefficient of variation (CV) C1 Human (human blood AChE): 5.8%
- Coefficient of variation (CV) C2 Human (human blood AChE): 6.0%
- Coefficient of variation (CV) C3 Human (human blood AChE): 6.9%
- Coefficient of variation (CV) C4 Human (human blood AChE): 5.7%
- Coefficient of variation (CV) C5 Human (human blood AChE): 5.8%
- Coefficient of variation (CV) C6 Human (human blood AChE): 6.6%
- Human uncertainty factor (UF) UF97.5 (human blood AChE): 1.8 [1.5–2.1]
- IC20 (human blood AChE; read-out: IC20 Human, whole blood, average of 20 donors): 7.1 µM
- IC20 (human blood AChE; read-out: IC20 Value, donor 1): 8.6 µM
- IC20 (human blood AChE; read-out: IC20 Value, donor 2): 6.4 µM
- IC20 (human blood AChE; read-out: IC20 Value, donor 3): 5.8 µM
- IC20 (human blood AChE; read-out: IC20 Value, donor 4): 8 µM
- IC20 (human blood AChE; read-out: IC20 Value, donor 5): 5.9 µM
- IC20 (human blood AChE; read-out: IC20 Value, donor 6): 9.3 µM
- IC20 (human blood AChE; read-out: IC20 Value, donor 7): 6.4 µM
- IC20 (human blood AChE; read-out: IC20 Value, donor 8): 8.1 µM
- IC20 (human blood AChE; read-out: IC20 Value, donor 9): 4.2 µM
- IC20 (human blood AChE; read-out: IC20 Value, donor 10): 5.3 µM
- IC20 (human blood AChE; read-out: IC20 Value, donor 11): 7 µM
- IC20 (human blood AChE; read-out: IC20 Value, donor 12): 8.8 µM
- IC20 (human blood AChE; read-out: IC20 Value, donor 13): 4.7 µM
- IC20 (human blood AChE; read-out: IC20 Value, donor 14): 6.1 µM
- IC20 (human blood AChE; read-out: IC20 Value, donor 15): 6 µM
- IC20 (human blood AChE; read-out: IC20 Value, donor 16): 5.9 µM
- IC20 (human blood AChE; read-out: IC20 Value, donor 17): 4.8 µM
- IC20 (human blood AChE; read-out: IC20 Value, donor 18): 9.2 µM
- IC20 (human blood AChE; read-out: IC20 Value, donor 19): 18 µM
- IC20 (human blood AChE; read-out: IC20 Value, donor 20): 3.4 µM
- In vivo concentration ([2]; ref Hoffmann et al. ([2008])): ≤ 300 µM

Compound: COP(=S)(OC)SCN1C(=O)c2ccccc2C1=O [PM, phosmet]
- pIC50 [1]: < 5.85
- AChE inhibition (in words), electric eel [1]: do not show any AChE inhibition; also recorded: did not inhibit AChE
- AChE inhibition (in words), electric eel ([1]; listed as phosmet): did not show inhibition
- pIC50 (human blood AChE; [7]): < 4.52
- AChE inhibition (in words), human blood (human blood AChE): do not inhibit AChE activity; also recorded: do not show any AChE inhibition; also recorded: did not inhibit AChE
- AChE inhibition (in words), human blood (human blood AChE; listed as phosmet): did not show inhibition
- IC50 Value Human [3]: Inactive
- In vivo concentration ([2]; ref Santori et al. ([2020])): ≤ 50 µM
